Results reported in US7829526B2, “Cardioinhibitory/antihypertensive novel endogenous physiologically active peptide” (Japan Science and Technology Agency, priority 2004, dated 2010).

Assays:
[1] = Cardioinhibitory or hypotensive activity of deletion variants and homologue (method not described); conditions: variants of SEQ ID No: 2
[2] = system: isolated, perfused rat hearts; assay: Isolated heart working model (isolated perfused rat heart); conditions: for cardiac contractility (inotropism): rat hearts, direct action on heart
Experimental: Isolated heart working model was used for estimating direct effect on cardiac muscle, according to a method described previously (Nat Med 9:[…], 2003). A heart isolated from a rat was set on an isolated heart perfusion apparatus (Primetech Corporation, IPH-W2) which was perfused with a Krebs Henseleit Buffer at 37° C., and stabilized. Subsequently, synthetic peptides were administered (10^−8 mol/l). Then, HR, SP, DP, MAP and aortic flow (AF) were measured over a period of 15 min. Coronary flow (CF) was measured by collecting coronary sinus effluent before and at 5 and 10 min after administering the peptide agent. Based on the obtained data, cardiac output (CO) was calculated by adding AF and CF, whereas stroke volume (SV) was obtained by dividing CO by HR, and then normalized by the heart volume of each rat.

intact-rats = assay: Effect of synthesized peptide on intact anesthetized rats (blood pressure, heart rate, aortic flow); assay type: in vivo, rat; conditions: for hypotensive effect: anesthetized SD rats, synthetic peptide 10 nmol/kg intravenously
Experimental: Meanwhile, a peptide of the present invention consisting of the amino acid sequence shown by SEQ ID No: 2 determined in Example 1, was synthesized with the use of a peptide synthesizer (Shimadzu, PSSM-8), and tested in the following experiment. SD rats weighing 400 to 525 g were used as test animals.
SD rats were anesthetized by intraperitoneal pentobarbital sodium (50 mg/kg), and a synthesized peptide was administered intravenously via a catheter placed in the […]. Heart rates and blood pressure were measured according to a method described previously (Nat Med 9: 1166-72, 2003) with the use of an electromagnetic flowmeter (MFV-1100, Nihon Koden). Further, a flowmeter was attached to the abdominal aorta, and aortic flow was measured according to the above method described previously. Synthetic peptides (10 nmol/kg) were administered intravenously over a period of 15 seconds or more, and systolic pressure (SP), diastolic pressure (DP) mean aortic pressure (MAP), heart rate (HR) were measured. A hypotensive effect of a synthetic peptide of the present invention was observed.

SD rats = conditions: cited from earlier work; for hypotensive and bradycardiac effects: 1 min after intravenous administration, SD rats under pentobarbital anesthesia; for dose dependence of hypotensive and bradycardiac effects: salusin-α 1-10 nmol/kg, salusin-β 0.1-1 nmol/kg
[3] = system: isolated rat aortic preparation; conditions: intact and endothelium-detached preparations, unconstricted or constricted with phenylephrine; cited from earlier work
[4] = intravenous administration into anesthetized rats

(1-20): SEQ ID No: 2 wherein 4 amino acids at C-terminal end are deleted (AIFIFISNTGGKQINQVALE; listed as Homo sapiens)
cardioinhibitory activity or hypotensive activity [1]: potent cardioinhibitory activity or hypotensive activity is maintained

(2-13): SEQ ID No: 2 wherein 11 amino acids at C-terminal end and 1 amino acid at N-terminal end are deleted (IFIFISNTGGKQ; listed as Homo sapiens)
cardioinhibitory activity or hypotensive activity [1]: the activity is somewhat decreased

(5-24): SEQ ID No: 2 wherein 4 amino acids at N terminal end are deleted (FISNTGGKQINQVALEAWRS; listed as Homo sapiens)
cardioinhibitory activity or hypotensive activity [1]: potent cardioinhibitory activity or hypotensive activity is maintained

AIFIFISNTGGKQINQVALEAWRS (listed as Homo sapiens) [peptide of the present invention, human-derived 24 amino acid peptide translated from TOR2A mRNA]
coronary flow ([2]; isolated rat heart, peptide 10^−8 mol/l, before and at 5 and 10 min, FIG. 2): lowering coronary flow | cardiac contractility (inotropism) [2]: potently reduce cardiac contractility | cardiac contractility (inotropism) ([2]; listed as This peptide): negative inotropism | hypotensive effect (intact-rats; FIG. 1, listed as This peptide): significant hypotensive activity | hypotensive effect (intact-rats; FIG. 1, listed as synthetic peptide of the present invention): observed | aortic blood flow (intact-rats; [4]): reduced | heart rates (intact-rats; [4]): reduced | aortic pressure (intact-rats; intravenous administration into anesthetized rats, FIG. 1): marked lowering | negative inotropic and chronotropic effects (intact-rats; rank among endogenous peptides, FIG. 2): most potent endogenous peptide identified thus far

salusin-α: related peptide of 28 amino acids biosynthesized by processing of preprosalusin (SGALPPAPAAPRPALRAQRAGPAGPGAK; salusin-alpha)
hypotensive and bradycardiac effects (SD rats): rapid hypotensive and bradycardiac effects | hypotensive effects after pretreatment with NO synthase inhibitor L-NAME (SD rats): not affected | dose dependence of hypotensive and bradycardiac effects (SD rats): dose-responsive | direct effect on isolated rat aorta [3]: did not show any direct effect

salusin-β: related peptide of 20 amino acids biosynthesized by processing of preprosalusin (AIFIFIRWLLKLGHHGRAPP; salusin-beta)
hypotensive and bradycardiac effects (SD rats): rapid hypotensive and bradycardiac effects | hypotensive effects after pretreatment with NO synthase inhibitor L-NAME (SD rats): not affected | potency compared to salusin-α (SD rats; hypotensive and bradycardiac effects): approximately 10 fold | dose dependence of hypotensive and bradycardiac effects (SD rats): dose-responsive | direct effect on isolated rat aorta [3]: did not show any direct effect
